Laboratory results taken from paper PMC9220351, “Evaluation of a Conformationally Constrained Indole Carboxamide as a Potential Efflux Pump Inhibitor in Pseudomonas aeruginosa” (Antibiotics, 2022).

Key:
[1] = test system: P. aeruginosa DA7232 (gyrA-T83I, parC-S80L); test: MIC / levofloxacin potentiation, fluoroquinolone-resistant strain; format: cell-based, Pseudomonas aeruginosa; conditions: strain DA7232
Description: (§1) P. aeruginosa ATCC 27853 was obtained from the American Type Culture Collection (ATCC; Manassas, VA, USA). P. aeruginosa multidrug-resistant isolates were obtained from the CDC and FDA Antibiotic Resistance Isolate Bank (Atlanta, GA, USA). P. aeruginosa DA7232 (gyrA-T83I, parC-S80L) was a kind gift from Prof. Dan I. Andersson, Uppsala University, Uppsala, Sweden, and has been characterized elsewhere. P. aeruginosa strains K767 (WT), K1455 (mexAB-oprM overexpressed), K2415 (mexXY-oprM overexpressed), and K3698 (oprM∆) were obtained from Prof. Keith Poole, Queen’s University, Kingston, Ontario, Canada and have been characterized elsewhere. Bacterial cells were grown in cation-adjusted Mueller Hinton (CAMH) media, brain heart infusion broth (BHI), or tryptic soy agar (TSA) plates were all obtained from Becton, Dickinson, and Company (BD; Franklin Lakes, NJ, USA). Aztreonam, ceftazidime, moxifloxacin, levofloxacin, minocycline, tigecycline, chloramphenicol, nitrocefin, and imipenem were purchased from TOKU-E (Bellingham, WA, USA). Azithromycin was purchased from Tokyo Chemical Industry (Portland, OR, USA). Cotrimoxazole was purchased from Toronto Research Chemicals (Toronto, ON, Canada). Doxycycline and polymyxin B were purchased from Sigma-Aldrich (St. Louis, MO, USA). Ethidium bromide (EtBr) and glucose were purchased from VWR (Radnor, PA, USA). MC-04,124 and TXA01182 were synthesized at TAXIS Pharmaceuticals. Carbonyl cyanide 3-chlorophenylhydrazone (CCCP) was purchased from Enzo Life Sciences (Farmingdale, NY, USA). DiOC2 (3) and propidium iodide were obtained from Thermo Fisher Scientific (Waltham, MA, USA).
(§2) MIC assays were performed as described previously.

[2] = test system: 34 MDR P. aeruginosa clinical isolates (CDC & FDA AR Isolate Bank); test: microbe, parasite or virus in culture; format: cell-based, Pseudomonas aeruginosa; conditions: for Levofloxacin MIC fold difference: + labelled EPI […] (TXA09155 head: 50 µg/mL); for Levofloxacin MIC: alone or + labelled EPI […] (TXA09155 head: 50 µg/mL)
Description: as §1, with “Aztreonam, ceftazidime, moxifloxacin, levofloxacin, minocycline, tigecycline, chloramphenicol, nitrocefin, and imipenem were purchased from TOKU-E (Bellingham, WA, USA).” left out, “Cotrimoxazole was purchased from Toronto Research Chemicals (Toronto, ON, Canada). Doxycycline and polymyxin B were purchased from Sigma-Aldrich (St. Louis, MO, USA).” left out
as §2

**Q.** `Cl.NC[C@@H]1CN[C@H](CNC(=O)c2cc3ccc(-c4ccc(F)cc4)cc3[nH]2)C1` [TXA09155, N-(((2S,4R)-4-(aminomethyl)pyrrolidine-2-yl)methyl)-6-(4-fluorophenyl)-1H-indole-2-carboxamide hydrochloride salt] was tested. Which “lowest concentration that potentiated levofloxacin eight-fold” value [1] did it give?
**A.** The value was 3.13 µg/mL.

**Q.** What about the “levofloxacin MIC50 in presence of EPI” value ([2]; EPI (label) fixed […], 34 MDR isolates, levofloxacin alone 32) of the same compound?
**A.** The value was 2 µg/mL.

**Q.** What about the “levofloxacin MIC90 in presence of EPI” value ([2]; EPI (label) fixed […], 34 MDR isolates, levofloxacin alone 64) of the same compound?
**A.** Its value is 8 µg/mL.

**Q.** And the “Levofloxacin MIC fold difference” value ([2]; strain AR-0229)?
**A.** The value was 32.

**Q.** And the “Levofloxacin MIC” value ([2]; strain AR-0229)?
**A.** The value was 2 µg/mL.

**Q.** And the “Levofloxacin MIC fold difference” value ([2]; strain AR-0230)?
**A.** Its value is 8.

**Q.** What about the “Levofloxacin MIC” value ([2]; strain AR-0230) of the same compound?
**A.** Its value is 8 µg/mL.

**Q.** What about the “Levofloxacin MIC fold difference” value ([2]; strain AR-0231) of the same compound?
**A.** Its value is 4.

**Q.** And the “Levofloxacin MIC” value ([2]; strain AR-0231)?
**A.** The value was 16 µg/mL.

**Q.** And the “Levofloxacin MIC fold difference” value ([2]; strain AR-0232)?
**A.** The value was 16.

**Q.** What about the “Levofloxacin MIC” value ([2]; strain AR-0232) of the same compound?
**A.** The value was 0.5 µg/mL.

**Q.** And the “Levofloxacin MIC fold difference” value ([2]; strain AR-0233)?
**A.** The value was 32.

**Q.** And the “Levofloxacin MIC” value ([2]; strain AR-0233)?
**A.** The value was 0.125 µg/mL.

**Q.** And the “Levofloxacin MIC fold difference” value ([2]; strain AR-0234)?
**A.** Its value is 16.

**Q.** And the “Levofloxacin MIC” value ([2]; strain AR-0234)?
**A.** Its value is 0.5 µg/mL.

**Q.** And the “Levofloxacin MIC fold difference” value ([2]; strain AR-0236)?
**A.** Its value is 8.

**Q.** What about the “Levofloxacin MIC” value ([2]; strain AR-0236) of the same compound?
**A.** Its value is 4 µg/mL.

**Q.** And the “Levofloxacin MIC fold difference” value ([2]; strain AR-0239)?
**A.** The value was 16.

**Q.** What about the “Levofloxacin MIC” value ([2]; strain AR-0239) of the same compound?
**A.** The value was 4 µg/mL.

**Q.** And the “Levofloxacin MIC fold difference” value ([2]; strain AR-0240)?
**A.** Its value is 16.

**Q.** And the “Levofloxacin MIC” value ([2]; strain AR-0240)?
**A.** The value was 8 µg/mL.

**Q.** And the “Levofloxacin MIC fold difference” value ([2]; strain AR-0241)?
**A.** The value was 8.

**Q.** What about the “Levofloxacin MIC” value ([2]; strain AR-0241) of the same compound?
**A.** The value was 8 µg/mL.

**Q.** And the “Levofloxacin MIC fold difference” value ([2]; strain AR-0242)?
**A.** The value was 16.

**Q.** What about the “Levofloxacin MIC” value ([2]; strain AR-0242) of the same compound?
**A.** The value was 1 µg/mL.

**Q.** What about the “Levofloxacin MIC fold difference” value ([2]; strain AR-0244) of the same compound?
**A.** Its value is 64.

**Q.** And the “Levofloxacin MIC” value ([2]; strain AR-0244)?
**A.** The value was 2 µg/mL.

**Q.** And the “Levofloxacin MIC fold difference” value ([2]; strain AR-0245)?
**A.** The value was 8.

**Q.** What about the “Levofloxacin MIC” value ([2]; strain AR-0245) of the same compound?
**A.** Its value is 16 µg/mL.

**Q.** What about the “Levofloxacin MIC fold difference” value ([2]; strain AR-0246) of the same compound?
**A.** Its value is 8.

**Q.** And the “Levofloxacin MIC” value ([2]; strain AR-0246)?
**A.** Its value is 8 µg/mL.

**Q.** What about the “Levofloxacin MIC fold difference” value ([2]; strain AR-0247) of the same compound?
**A.** The value was 256.

**Q.** And the “Levofloxacin MIC” value ([2]; strain AR-0247)?
**A.** Its value is at most 0.008 µg/mL.

**Q.** And the “Levofloxacin MIC fold difference” value ([2]; strain AR-0248)?
**A.** Its value is 32.

**Q.** What about the “Levofloxacin MIC” value ([2]; strain AR-0248) of the same compound?
**A.** Its value is 0.5 µg/mL.

**Q.** And the “Levofloxacin MIC fold difference” value ([2]; strain AR-0249)?
**A.** The value was 32.

**Q.** What about the “Levofloxacin MIC” value ([2]; strain AR-0249) of the same compound?
**A.** The value was 2 µg/mL.

**Q.** And the “Levofloxacin MIC fold difference” value ([2]; strain AR-0250)?
**A.** Its value is 8.

**Q.** And the “Levofloxacin MIC” value ([2]; strain AR-0250)?
**A.** The value was 8 µg/mL.

**Q.** What about the “Levofloxacin MIC fold difference” value ([2]; strain AR-0252) of the same compound?
**A.** The value was 64.

**Q.** What about the “Levofloxacin MIC” value ([2]; strain AR-0252) of the same compound?
**A.** Its value is 0.5 µg/mL.

**Q.** And the “Levofloxacin MIC fold difference” value ([2]; strain AR-0253)?
**A.** Its value is 64.

**Q.** What about the “Levofloxacin MIC” value ([2]; strain AR-0253) of the same compound?
**A.** The value was 0.031 µg/mL.

**Q.** What about the “Levofloxacin MIC fold difference” value ([2]; strain AR-0256) of the same compound?
**A.** The value was 16.

**Q.** And the “Levofloxacin MIC” value ([2]; strain AR-0256)?
**A.** Its value is 0.031 µg/mL.

**Q.** What about the “Levofloxacin MIC fold difference” value ([2]; strain AR-0258) of the same compound?
**A.** Its value is 8.

**Q.** What about the “Levofloxacin MIC” value ([2]; strain AR-0258) of the same compound?
**A.** Its value is 0.062 µg/mL.

**Q.** And the “Levofloxacin MIC fold difference” value ([2]; strain AR-0259)?
**A.** The value was 8.

**Q.** And the “Levofloxacin MIC” value ([2]; strain AR-0259)?
**A.** The value was 0.062 µg/mL.

**Q.** What about the “Levofloxacin MIC fold difference” value ([2]; strain AR-0260) of the same compound?
**A.** Its value is 8.

**Q.** And the “Levofloxacin MIC” value ([2]; strain AR-0260)?
**A.** Its value is 8 µg/mL.

**Q.** What about the “Levofloxacin MIC fold difference” value ([2]; strain AR-0261) of the same compound?
**A.** The value was 32.

**Q.** What about the “Levofloxacin MIC” value ([2]; strain AR-0261) of the same compound?
**A.** The value was 0.25 µg/mL.

**Q.** What about the “Levofloxacin MIC fold difference” value ([2]; strain AR-0262) of the same compound?
**A.** The value was 64.

**Q.** What about the “Levofloxacin MIC” value ([2]; strain AR-0262) of the same compound?
**A.** Its value is 0.063 µg/mL.

**Q.** What about the “Levofloxacin MIC fold difference” value ([2]; strain AR-0264) of the same compound?
**A.** The value was 32.

**Q.** What about the “Levofloxacin MIC” value ([2]; strain AR-0264) of the same compound?
**A.** The value was 1 µg/mL.

**Q.** What about the “Levofloxacin MIC fold difference” value ([2]; strain AR-0265) of the same compound?
**A.** Its value is 16.

**Q.** What about the “Levofloxacin MIC” value ([2]; strain AR-0265) of the same compound?
**A.** Its value is 4 µg/mL.

**Q.** What about the “Levofloxacin MIC fold difference” value ([2]; strain AR-0266) of the same compound?
**A.** Its value is 16.

**Q.** And the “Levofloxacin MIC” value ([2]; strain AR-0266)?
**A.** Its value is 2 µg/mL.

**Q.** What about the “Levofloxacin MIC fold difference” value ([2]; strain AR-0267) of the same compound?
**A.** The value was 64.

**Q.** What about the “Levofloxacin MIC” value ([2]; strain AR-0267) of the same compound?
**A.** Its value is 0.5 µg/mL.

**Q.** And the “Levofloxacin MIC fold difference” value ([2]; strain AR-0269)?
**A.** Its value is 16.

**Q.** What about the “Levofloxacin MIC” value ([2]; strain AR-0269) of the same compound?
**A.** Its value is 2 µg/mL.

**Q.** And the “Levofloxacin MIC fold difference” value ([2]; strain AR-0270)?
**A.** The value was 64.

**Q.** What about the “Levofloxacin MIC” value ([2]; strain AR-0270) of the same compound?
**A.** Its value is 0.5 µg/mL.

**Q.** And the “Levofloxacin MIC fold difference” value ([2]; strain AR-0271)?
**A.** Its value is 8.

**Q.** And the “Levofloxacin MIC” value ([2]; strain AR-0271)?
**A.** Its value is 4 µg/mL.

**Q.** What about the “Levofloxacin MIC fold difference” value ([2]; strain AR-0272) of the same compound?
**A.** The value was 8.

**Q.** And the “Levofloxacin MIC” value ([2]; strain AR-0272)?
**A.** The value was 2 µg/mL.
